Assay results reported in ChEMBL document CHEMBL1128079, “Differential RXR & RAR activity of stilbene retinoid analogs bearing thiazole and imidazole carboxylic acids” (Bioorg Med Chem Lett, 1995).

Key:
Assay type in all cases: functional; call rule not given here
[1] = target: T1, Retinoic acid receptor RXR-gamma (Homo sapiens, UniProt P48443); assay: Agonist activity for retinoic acid receptor RXR gamma in transcriptional activation assay
T1 sequence (P48443 whole entry): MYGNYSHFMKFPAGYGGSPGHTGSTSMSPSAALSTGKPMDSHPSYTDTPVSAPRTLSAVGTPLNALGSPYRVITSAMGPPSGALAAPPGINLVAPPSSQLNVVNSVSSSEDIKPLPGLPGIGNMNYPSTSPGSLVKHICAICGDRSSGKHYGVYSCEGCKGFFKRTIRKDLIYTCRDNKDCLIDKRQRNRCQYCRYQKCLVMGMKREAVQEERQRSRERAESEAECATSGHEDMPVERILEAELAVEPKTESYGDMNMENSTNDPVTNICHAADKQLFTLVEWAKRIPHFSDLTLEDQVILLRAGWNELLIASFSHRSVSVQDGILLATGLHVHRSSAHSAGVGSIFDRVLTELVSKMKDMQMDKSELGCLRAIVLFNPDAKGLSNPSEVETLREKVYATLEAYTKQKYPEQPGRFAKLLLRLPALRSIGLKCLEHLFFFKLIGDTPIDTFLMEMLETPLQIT

[2] = target: T2, Retinoic acid receptor beta (Homo sapiens, UniProt P10826); assay: Agonist activity for retinoic acid receptor RAR beta in transcriptional activation assay
T2 sequence (P10826 whole entry): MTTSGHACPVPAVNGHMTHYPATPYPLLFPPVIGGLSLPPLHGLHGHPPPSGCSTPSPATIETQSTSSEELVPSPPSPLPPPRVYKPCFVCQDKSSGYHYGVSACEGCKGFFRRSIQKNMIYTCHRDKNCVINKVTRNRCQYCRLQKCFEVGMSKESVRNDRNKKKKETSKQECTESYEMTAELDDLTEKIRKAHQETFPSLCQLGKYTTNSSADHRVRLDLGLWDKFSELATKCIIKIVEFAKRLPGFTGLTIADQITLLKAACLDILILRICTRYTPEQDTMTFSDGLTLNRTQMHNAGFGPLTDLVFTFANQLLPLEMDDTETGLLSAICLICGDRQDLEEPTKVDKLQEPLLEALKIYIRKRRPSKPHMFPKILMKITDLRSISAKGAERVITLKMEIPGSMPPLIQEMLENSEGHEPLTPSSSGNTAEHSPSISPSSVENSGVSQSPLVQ

[3] = target: T3, Retinoic acid receptor alpha (Homo sapiens, UniProt P10276); assay: Agonist activity for retinoic acid receptor RAR alpha in transcriptional activation assay
T3 sequence (P10276 whole entry): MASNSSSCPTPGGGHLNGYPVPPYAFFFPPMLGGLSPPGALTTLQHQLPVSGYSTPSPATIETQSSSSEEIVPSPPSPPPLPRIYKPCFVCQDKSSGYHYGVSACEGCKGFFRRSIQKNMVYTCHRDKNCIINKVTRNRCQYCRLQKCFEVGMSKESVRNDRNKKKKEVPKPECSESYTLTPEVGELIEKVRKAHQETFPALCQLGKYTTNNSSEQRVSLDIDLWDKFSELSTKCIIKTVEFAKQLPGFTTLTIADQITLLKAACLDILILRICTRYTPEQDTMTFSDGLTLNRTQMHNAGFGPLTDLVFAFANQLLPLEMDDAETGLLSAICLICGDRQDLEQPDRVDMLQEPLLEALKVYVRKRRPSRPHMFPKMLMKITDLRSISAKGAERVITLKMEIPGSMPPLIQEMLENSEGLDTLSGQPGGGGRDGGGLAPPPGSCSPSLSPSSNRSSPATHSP

[4] = target: T4, Retinoic acid receptor gamma (Homo sapiens, UniProt P13631); assay: Agonist activity for retinoic acid receptor RAR gamma in transcriptional activation assay
T4 sequence (P13631 whole entry): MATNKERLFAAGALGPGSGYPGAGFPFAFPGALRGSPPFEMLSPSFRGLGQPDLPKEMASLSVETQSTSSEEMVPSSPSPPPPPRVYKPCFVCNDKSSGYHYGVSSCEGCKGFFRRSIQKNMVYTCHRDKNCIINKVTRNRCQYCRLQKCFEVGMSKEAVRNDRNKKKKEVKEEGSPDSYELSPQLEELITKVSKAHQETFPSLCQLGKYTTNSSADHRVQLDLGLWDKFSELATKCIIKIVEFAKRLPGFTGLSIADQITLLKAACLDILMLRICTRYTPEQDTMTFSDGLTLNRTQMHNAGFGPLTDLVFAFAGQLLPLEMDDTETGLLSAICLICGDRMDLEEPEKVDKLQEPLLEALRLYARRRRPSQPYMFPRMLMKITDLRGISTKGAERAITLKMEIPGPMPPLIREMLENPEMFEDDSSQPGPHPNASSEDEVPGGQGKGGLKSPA

[5] = target: T5, Retinoic acid receptor RXR-alpha (Homo sapiens, UniProt P19793); assay: Agonist activity for retinoic acid receptor RXR alpha in transcriptional activation assay
T5 sequence (P19793 whole entry): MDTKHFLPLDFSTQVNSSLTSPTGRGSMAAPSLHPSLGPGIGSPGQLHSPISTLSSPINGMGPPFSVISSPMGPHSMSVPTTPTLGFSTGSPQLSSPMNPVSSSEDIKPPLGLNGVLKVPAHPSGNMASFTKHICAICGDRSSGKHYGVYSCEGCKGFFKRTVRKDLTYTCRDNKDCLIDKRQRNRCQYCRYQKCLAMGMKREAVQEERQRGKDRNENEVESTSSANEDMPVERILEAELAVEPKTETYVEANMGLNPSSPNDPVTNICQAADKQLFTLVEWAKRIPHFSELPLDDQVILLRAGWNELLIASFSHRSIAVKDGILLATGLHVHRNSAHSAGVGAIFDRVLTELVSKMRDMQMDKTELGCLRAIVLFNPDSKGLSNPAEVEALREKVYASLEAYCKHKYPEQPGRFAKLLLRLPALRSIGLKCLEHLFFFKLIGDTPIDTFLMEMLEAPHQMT

[6] = target: T6, Retinoic acid receptor RXR-beta (Homo sapiens, UniProt P28702); assay: Agonist activity for retinoic acid receptor RXR beta in transcriptional activation assay
T6 sequence (P28702 whole entry): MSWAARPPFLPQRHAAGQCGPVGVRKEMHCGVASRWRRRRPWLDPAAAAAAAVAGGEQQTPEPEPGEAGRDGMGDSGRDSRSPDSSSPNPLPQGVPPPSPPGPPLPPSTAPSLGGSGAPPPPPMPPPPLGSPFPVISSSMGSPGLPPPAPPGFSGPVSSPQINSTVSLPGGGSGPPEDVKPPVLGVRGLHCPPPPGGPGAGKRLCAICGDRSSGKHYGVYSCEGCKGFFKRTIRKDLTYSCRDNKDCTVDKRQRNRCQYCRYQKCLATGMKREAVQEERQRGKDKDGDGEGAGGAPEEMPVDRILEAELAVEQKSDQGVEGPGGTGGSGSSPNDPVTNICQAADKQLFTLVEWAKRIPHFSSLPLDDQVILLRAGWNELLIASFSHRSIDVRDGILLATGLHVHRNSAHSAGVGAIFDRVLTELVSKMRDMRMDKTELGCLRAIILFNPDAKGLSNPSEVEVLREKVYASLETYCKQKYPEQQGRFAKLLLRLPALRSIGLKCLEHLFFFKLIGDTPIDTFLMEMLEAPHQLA

[7] = target: T4, Retinoic acid receptor gamma; assay: Agonist activity for retinoic acid receptor RAR gamma in transcriptional activation assay; […]
[8] = target: T2, Retinoic acid receptor beta; assay: Agonist activity for retinoic acid receptor RAR beta in transcriptional activation assay; […]
[9] = target: T3, Retinoic acid receptor alpha; assay: Agonist activity for retinoic acid receptor RAR alpha in transcriptional activation assay; […]

| SMILES | EC50 ([1]; read-out: EC50) | EC50 [2] | EC50 [3] | EC50 [4] | EC50 [5] | EC50 [6] | EC50 [7] | EC50 [8] | EC50 [9] | EC50 [1] |
| --- | --- | --- | --- | --- | --- | --- | --- | --- | --- | --- |
| C/C(=C\c1ccc(C(=O)O)s1)c1ccc2c(c1)C(C)(C)CCC2(C)C | 2300 nM | 29 nM | 690 nM | 15 nM | 2400 nM | 2300 nM | – | – | – | – |
| C/C(=C\c1nc(C(=O)O)c[nH]1)c1cc2c(cc1C)C(C)(C)CCC2(C)C | 170 nM | – | – | – | 89 nM | 130 nM | Not Active | Not Active | Not Active | – |
| C/C(=C\c1cc(C(=O)O)cs1)c1cc2c(cc1C)C(C)(C)CCC2(C)C | 105 nM | 1990 nM | – | 979 nM | 215 nM | 180 nM | – | – | Not Active | – |
| C/C(=C\c1ncc(C(=O)O)s1)c1ccc2c(c1)C(C)(C)CCC2(C)C | 160 nM | 46 nM | 210 nM | 34 nM | 210 nM | 210 nM | – | – | – | – |
| C/C(=C\c1ccc(C(=O)O)cc1)c1ccc2c(c1)C(C)(C)CCC2(C)C | – | – | – | – | – | – | – | – | – | Not Active |
| C/C(=C\c1ncc(C(=O)O)s1)c1cc2c(cc1C)C(C)(C)CCC2(C)C | 4 nM | 220 nM | – | 200 nM | 4 nM | 3 nM | – | – | Not Active | – |
| C/C(=C\c1ccc(C(=O)O)s1)c1cc2c(cc1C)C(C)(C)CCC2(C)C | 33 nM | 56 nM | – | 131 nM | 35 nM | 23 nM | – | – | Not Active | – |
| C/C(=C\c1ncc(C(=O)O)n1S(=O)(=O)N(C)C)c1cc2c(cc1C)C(C)(C)CCC2(C)C | 86 nM | – | – | – | 59 nM | 180 nM | Not Active | Not Active | Not Active | – |
